For data set [1] the following is noted: Crystal; DTA.
Data set [2] is described as follows: Molar enthalpy of transition or fusion. As to conditions: Crystal; DSC.

These results are taken from the NIST ThermoML archive (doi:10.1021/je0502851).

Structures are written as SMILES. ± gives the expanded uncertainty stated by the source.

As for `c1ccc2ccccc2c1` [naphthalene], the Normal melting temperature in data set [1] turned out to be 81.54 ± 0.53 °C. In data set [2], the “Molar enthalpy of transition or fusion” value came to 4.67 ± 0.215 kcal/mol.

For `NCCCCCCCCN` [1,8-diaminooctane], the Normal melting temperature in data set [1] worked out at 51.73 ± 0.53 °C. In data set [2], the “Molar enthalpy of transition or fusion” value came to 12.1 ± 0.359 kcal/mol.

Take `NCCCCCCCCCCCCN` [1,12-dodecanediamine]: in data set [1], the Normal melting temperature came out at 68.69 ± 0.53 °C. Further, in data set [2], the “Molar enthalpy of transition or fusion” value was determined as 16 ± 0.359 kcal/mol.

With `NCCCCCCN` [1,6-hexanediamine], the Normal melting temperature in data set [1] came to 38.5 ± 0.53 °C. Further, in data set [2], the “Molar enthalpy of transition or fusion” value turned out to be 9.41 ± 0.263 kcal/mol.
